Measurements published in US20230094922A1, “METHODS OF THERAPEUTIC PROGNOSTICATION” (GENETIKAPLUS LTD., priority 2020, published 2023).

System: iPSC-derived cortical neurons
Assay: Dendritic arborization analysis (dendrite length), confocal imaging
Format: cell-based, human
Protocol: FIG. 7. Analysis of dendritic arborization. Dendritic arborization was analyzed using confocal microscopy in samples treated with Bupropion. Images for dendritic arborization were acquired with a 20× objective in z-stacks and analyzed using Neurolucida software. iPSC differentiation into neurons-iPSCs were seeded at a density of 3×10^6 cells/well on a hESC-qualified Matrigel pre-coated 6-well plate and incubated at 37° C., 5% CO2 overnight. Differentiation was initiated the following day (day 0) after verifying that 100% confluency was reached. Differentiation media was added daily according to the following order: […]7 (day 15 onward) similar to a previously published protocol developed by for rapid differentiation to cortical neurons. The components of the described media, Q1-7, are provided in Appendix 1. Cells were assessed for differentiation efficiency and cell death on a daily basis. […] Neuronal and synaptic morphology was assessed using the Neurolucida software, pre- and post-synaptic marker analysis was performed using CellProfiler and total dendritic length was measured using Fiji software.

Structure (SMILES): CC(NC(C)(C)C)C(=O)c1cccc(Cl)c1 (stereo not drawn) [Bupropion, 3-Chloro-N-tert-butyl-β-keto-α-methylphenethylamin]
- dendritic length, effect of treatment (significant decrease or not) (cells derived from non-responders): did not
- dendritic length, effect of treatment (neurons derived from responders): significant decrease in dendritic length
